# Experimental data as given in ChEMBL document CHEMBL1201862, “PubChem BioAssay data set” (2004).
#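 Each compound was tested at five concentrations against cells in 96-well plates for 48 hours. GI50 = concentration required for 50% inhibition of growth.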 Calls of active or inactive are those of the source. Cut-off read from the data, not from the text of the source: active = GI50 up to about 1.1 µM and inactive = higher.
# Legend:
# Experiment in all cases: NCI tumour cell line growth inhibition, 48 h
# HL-60 = system: HL-60
# NCI-H460 = system: NCI-H460
# A498 = system: A498
# CCRF-CEM = system: CCRF-CEM
# OVCAR-5 = system: OVCAR-5
# HCT-15 = system: HCT-15
# RXF 393 = system: RXF 393
# NCI-H522 = system: NCI-H522
# SW-620 = system: SW-620
# NCI-H226 = system: NCI-H226
# SN12C = system: SN12C
# NCI-H23 = system: NCI-H23
# SNB-19 = system: SNB-19
# SK-MEL-2 = system: SK-MEL-2
# SF-539 = system: SF-539
# CAKI-1 = system: CAKI-1
# TK-10 = system: TK-10
Structure (SMILES),GI50 (HL-60),GI50 (NCI-H460),GI50 (A498),GI50 (CCRF-CEM),GI50 (OVCAR-5),GI50 (HCT-15) [µM],GI50 (RXF 393),GI50 (NCI-H522),GI50 (SW-620),GI50 (NCI-H226),GI50 (SN12C),GI50 (NCI-H23),GI50 (SNB-19),GI50 (SK-MEL-2),GI50 (SF-539),GI50 (CAKI-1),GI50 (TK-10)
CCOC(=O)c1c(C)c2c(n1C)CCc1c[nH]nc1-2,> 100 µM (inactive),> 100 µM (inactive),> 100 µM (inactive),> 100 µM (inactive),99.1 µM (inactive),> 100,> 100 µM (inactive),> 100 µM (inactive),> 100 µM (inactive),> 100 µM (inactive),> 100 µM (inactive),> 100 µM (inactive),> 64.6 µM (inactive),> 100 µM (inactive),> 100 µM (inactive),> 100 µM (inactive),
O=C1OC(c2ccccc2)=N/C1=C\c1c(O)cc(O)cc1O,,,> 100 µM (inactive),> 100 µM (inactive),> 100 µM (inactive),38,> 100 µM (inactive),47.2 µM (inactive),> 100 µM (inactive),,> 100 µM (inactive),> 100 µM (inactive),> 100 µM (inactive),> 100 µM (inactive),> 100 µM (inactive),> 100 µM (inactive),> 100 µM (inactive)
C/N=c1\ss/c(=N\C(=S)N(C)C)n1C1CCCCC1,> 100 µM (inactive),> 31.6 µM (inactive),> 31.6 µM (inactive),> 31.6 µM (inactive),> 31.6 µM (inactive),> 31.6,> 31.6 µM (inactive),> 31.6 µM (inactive),> 31.6 µM (inactive),> 31.6 µM (inactive),> 31.6 µM (inactive),> 31.6 µM (inactive),> 31.6 µM (inactive),> 31.6 µM (inactive),> 100 µM (inactive),> 31.6 µM (inactive),> 31.6 µM (inactive)
CCOC(=O)c1nc2ccc([N+](=O)[O-])cc2c2c1CCO2,> 100 µM (inactive),> 100 µM (inactive),> 100 µM (inactive),> 100 µM (inactive),> 100 µM (inactive),> 100,> 100 µM (inactive),92.3 µM (inactive),> 100 µM (inactive),> 100 µM (inactive),> 100 µM (inactive),> 100 µM (inactive),> 100 µM (inactive),> 100 µM (inactive),> 100 µM (inactive),> 100 µM (inactive),> 100 µM (inactive)
CC(C)CCS(=O)(=O)OCCCCOS(=O)(=O)CCC(C)C,> 100 µM (inactive),> 100 µM (inactive),,> 100 µM (inactive),,> 100,> 100 µM (inactive),> 100 µM (inactive),> 100 µM (inactive),> 100 µM (inactive),> 100 µM (inactive),> 100 µM (inactive),> 100 µM (inactive),,> 100 µM (inactive),,> 100 µM (inactive)
NNC(=O)/C(NC(=O)c1ccccc1)=C(\N)c1ccc(Cl)cc1,> 100 µM (inactive),> 100 µM (inactive),80.5 µM (inactive),38.2 µM (inactive),> 100 µM (inactive),> 100,> 100 µM (inactive),61.1 µM (inactive),> 100 µM (inactive),> 100 µM (inactive),> 100 µM (inactive),> 100 µM (inactive),> 100 µM (inactive),> 100 µM (inactive),> 100 µM (inactive),> 100 µM (inactive),> 100 µM (inactive)
Cc1c(C(=O)CC(=O)C(=O)NC2C3CC4CC(C3)CC2C4)[n+]([O-])c2ccccc2[n+]1[O-] (configuration not stated),> 100 µM (inactive),> 100 µM (inactive),> 100 µM (inactive),90.6 µM (inactive),> 100 µM (inactive),> 100,> 100 µM (inactive),> 100 µM (inactive),> 100 µM (inactive),> 100 µM (inactive),> 100 µM (inactive),> 100 µM (inactive),> 100 µM (inactive),> 100 µM (inactive),> 100 µM (inactive),> 100 µM (inactive),> 100 µM (inactive)
CCOC(=O)c1cnc2sc3ccc4ccccc4c3n2c1=O,21.2 µM (inactive),> 100 µM (inactive),,25.1 µM (inactive),> 100 µM (inactive),46.3,> 100 µM (inactive),,> 100 µM (inactive),30.1 µM (inactive),39.3 µM (inactive),62.5 µM (inactive),> 100 µM (inactive),41.5 µM (inactive),30.1 µM (inactive),29.5 µM (inactive),62.5 µM (inactive)
O=[N+]([O-])c1ccc2nc(/C(=N\Nc3ccccc3)C(O)c3ccc4c(c3)OCO4)c(O)nc2c1 (configuration not stated),52.1 µM (inactive),> 100 µM (inactive),,> 100 µM (inactive),,20.7,> 100 µM (inactive),39 µM (inactive),56.1 µM (inactive),> 100 µM (inactive),> 100 µM (inactive),> 100 µM (inactive),> 100 µM (inactive),> 100 µM (inactive),> 100 µM (inactive),,> 100 µM (inactive)
COc1ccc2c(c1)[n+]([O-])c(-c1ccc(C)cc1)c(N)[n+]2[O-],43.9 µM (inactive),38.3 µM (inactive),> 100 µM (inactive),,66.5 µM (inactive),45.8,,16.3 µM (inactive),38.4 µM (inactive),> 100 µM (inactive),> 100 µM (inactive),20.9 µM (inactive),> 100 µM (inactive),40.6 µM (inactive),86.1 µM (inactive),49.2 µM (inactive),
O=C(Nc1cc(Cl)ccc1Cl)C(=O)C(c1cnc2ccccc2n1)[N+](=O)[O-] (configuration not stated),> 100 µM (inactive),> 100 µM (inactive),> 100 µM (inactive),> 100 µM (inactive),> 100 µM (inactive),> 100,> 100 µM (inactive),85.1 µM (inactive),> 100 µM (inactive),> 100 µM (inactive),> 100 µM (inactive),> 100 µM (inactive),> 100 µM (inactive),,> 100 µM (inactive),> 100 µM (inactive),> 100 µM (inactive)
O=C1CCC(=O)C(C(=O)CCC(=O)Nc2ccc(Cl)cc2)C1 (configuration not stated),> 100 µM (inactive),> 100 µM (inactive),> 100 µM (inactive),> 100 µM (inactive),> 100 µM (inactive),> 100,,> 100 µM (inactive),> 100 µM (inactive),> 100 µM (inactive),> 100 µM (inactive),> 100 µM (inactive),> 100 µM (inactive),> 100 µM (inactive),> 100 µM (inactive),> 100 µM (inactive),> 100 µM (inactive)
N#CC1(C#N)C(c2ccc(C3C(C#N)(C#N)C3(C#N)C#N)cc2)C1(C#N)C#N,> 100 µM (inactive),> 100 µM (inactive),,> 100 µM (inactive),> 100 µM (inactive),> 100,> 100 µM (inactive),58.3 µM (inactive),> 100 µM (inactive),,> 100 µM (inactive),> 100 µM (inactive),> 100 µM (inactive),> 100 µM (inactive),> 100 µM (inactive),> 100 µM (inactive),> 100 µM (inactive)
O=C1C=C2SC3C[C@@]24CC1[N+]1=c2c4c(c(O)c4c2=C(C=N4)CC1)N3,1.46 µM (inactive),3.2 µM (inactive),5.31 µM (inactive),2 µM (inactive),2.17 µM (inactive),3.4,1.99 µM (inactive),1.58 µM (inactive),2.62 µM (inactive),2.29 µM (inactive),2.67 µM (inactive),,5.31 µM (inactive),1.82 µM (inactive),1.9 µM (inactive),2.62 µM (inactive),
Oc1cc(Cl)ncn1,> 100 µM (inactive),> 100 µM (inactive),> 100 µM (inactive),> 100 µM (inactive),> 100 µM (inactive),> 100,,> 100 µM (inactive),> 100 µM (inactive),> 100 µM (inactive),> 100 µM (inactive),> 100 µM (inactive),> 100 µM (inactive),> 100 µM (inactive),,> 100 µM (inactive),> 100 µM (inactive)
CC1=C2[C@H](c3ccccc3)C3C=CC2(c2ccccc23)N(C(=O)C(c2ccccc2)c2ccccc2)C1=O (some centres not stated),41.3 µM (inactive),> 100 µM (inactive),> 100 µM (inactive),> 100 µM (inactive),> 100 µM (inactive),> 100,> 100 µM (inactive),,> 100 µM (inactive),,> 100 µM (inactive),> 100 µM (inactive),> 100 µM (inactive),,> 100 µM (inactive),> 100 µM (inactive),> 100 µM (inactive)
N#C/N=C(\N)NCCO,> 100 µM (inactive),> 100 µM (inactive),> 100 µM (inactive),,> 100 µM (inactive),38.7,16.6 µM (inactive),> 100 µM (inactive),18.3 µM (inactive),> 100 µM (inactive),> 100 µM (inactive),> 100 µM (inactive),> 100 µM (inactive),> 100 µM (inactive),> 100 µM (inactive),> 100 µM (inactive),> 100 µM (inactive)
Oc1cc(O)cc(/C=C/c2ccc(O)c(O)c2)c1 [PICEATANNOL],2.74 µM (inactive),22.2 µM (inactive),40.9 µM (inactive),4.32 µM (inactive),5.06 µM (inactive),5.9,8.77 µM (inactive),2.75 µM (inactive),13 µM (inactive),19.5 µM (inactive),12.4 µM (inactive),17.3 µM (inactive),24.8 µM (inactive),3.87 µM (inactive),8.91 µM (inactive),4.35 µM (inactive),
